± gives the expanded uncertainty stated by the source.
Experiment: excess molar enthalpy (molar enthalpy of mixing); xn = mol fraction of the nth substance listed
Settings: Liquid, Flow calorimetry

COC=O [methyl methanoate] + CCCO
excess molar enthalpy [kcal/mol]
Settings | 298.15 K | 333.15 K
5000 kPa, x1 = 0.0399 | 0.0784 ± 0.000789 | –
5000 kPa, x1 = 0.0788 | 0.1484 ± 0.00134 | –
5000 kPa, x1 = 0.1201 | 0.2123 ± 0.00184 | –
5000 kPa, x1 = 0.1621 | 0.2668 ± 0.00225 | –
5000 kPa, x1 = 0.2066 | 0.3134 ± 0.00263 | –
5000 kPa, x1 = 0.2501 | 0.3511 ± 0.00287 | –
5000 kPa, x1 = 0.2944 | 0.38 ± 0.00311 | –
5000 kPa, x1 = 0.3414 | 0.4016 ± 0.00335 | –
5000 kPa, x1 = 0.3893 | 0.4175 ± 0.00335 | –
5000 kPa, x1 = 0.4381 | 0.4248 ± 0.00359 | –
5000 kPa, x1 = 0.4878 | 0.4274 ± 0.00359 | –
5000 kPa, x1 = 0.5386 | 0.4217 ± 0.00335 | –
5000 kPa, x1 = 0.5903 | 0.4078 ± 0.00335 | –
5000 kPa, x1 = 0.6452 | 0.3837 ± 0.00311 | –
5000 kPa, x1 = 0.699 | 0.3526 ± 0.00287 | –
5000 kPa, x1 = 0.7562 | 0.3063 ± 0.00263 | –
5000 kPa, x1 = 0.8146 | 0.2533 ± 0.00215 | –
5000 kPa, x1 = 0.8743 | 0.1849 ± 0.00163 | –
5000 kPa, x1 = 0.9376 | 0.09713 ± 0.000932 | –
10000 kPa, x1 = 0.0398 | 0.08184 ± 0.000813 | –
10000 kPa, x1 = 0.0403 | – | 0.0804 ± 0.000813
10000 kPa, x1 = 0.0786 | 0.1545 ± 0.00139 | –
10000 kPa, x1 = 0.0788 | – | 0.1602 ± 0.00143
10000 kPa, x1 = 0.1197 | 0.2204 ± 0.00189 | –
10000 kPa, x1 = 0.1205 | – | 0.2359 ± 0.00201
10000 kPa, x1 = 0.1616 | 0.2756 ± 0.00232 | –
10000 kPa, x1 = 0.1629 | – | 0.3022 ± 0.00263
10000 kPa, x1 = 0.2061 | 0.3245 ± 0.00263 | 0.3577 ± 0.00287
10000 kPa, x1 = 0.2495 | 0.3621 ± 0.00311 | –
10000 kPa, x1 = 0.25 | – | 0.4038 ± 0.00335
10000 kPa, x1 = 0.2937 | 0.3913 ± 0.00311 | –
10000 kPa, x1 = 0.2948 | – | 0.4424 ± 0.00359
10000 kPa, x1 = 0.3404 | – | 0.4715 ± 0.00382
10000 kPa, x1 = 0.3407 | 0.4134 ± 0.00335 | –
10000 kPa, x1 = 0.3868 | – | 0.4918 ± 0.00406
10000 kPa, x1 = 0.3885 | 0.4284 ± 0.00359 | –
10000 kPa, x1 = 0.437 | – | 0.5043 ± 0.00406
10000 kPa, x1 = 0.4373 | 0.436 ± 0.00359 | –
10000 kPa, x1 = 0.4853 | – | 0.5087 ± 0.00406
10000 kPa, x1 = 0.487 | 0.4358 ± 0.00359 | –
10000 kPa, x1 = 0.5374 | – | 0.5014 ± 0.00406
10000 kPa, x1 = 0.5377 | 0.428 ± 0.00359 | –
10000 kPa, x1 = 0.5895 | 0.4126 ± 0.00335 | –
10000 kPa, x1 = 0.5907 | – | 0.4864 ± 0.00406
10000 kPa, x1 = 0.6444 | 0.3875 ± 0.00311 | –
10000 kPa, x1 = 0.645 | – | 0.4589 ± 0.00382
10000 kPa, x1 = 0.6983 | 0.3565 ± 0.00287 | –
10000 kPa, x1 = 0.7005 | – | 0.4193 ± 0.00335
10000 kPa, x1 = 0.7556 | 0.3115 ± 0.00263 | –
10000 kPa, x1 = 0.7572 | – | 0.3654 ± 0.00311
10000 kPa, x1 = 0.8141 | 0.2558 ± 0.00217 | –
10000 kPa, x1 = 0.8151 | – | 0.3029 ± 0.00263
10000 kPa, x1 = 0.8739 | 0.1848 ± 0.00163 | –
10000 kPa, x1 = 0.8743 | – | 0.2236 ± 0.00191
10000 kPa, x1 = 0.9347 | – | 0.1235 ± 0.00115
10000 kPa, x1 = 0.9374 | 0.09637 ± 0.000932 | –

COC=O [methyl methanoate] + CCC(C)O
excess molar enthalpy [kcal/mol], 298.15 K
Settings | 5000 kPa | 10000 kPa
x1 = 0.0501 | 0.1085 ± 0.00103 | –
x1 = 0.0996 | – | 0.2144 ± 0.00184
x1 = 0.1 | 0.2057 ± 0.00177 | –
x1 = 0.1496 | 0.2851 ± 0.00239 | –
x1 = 0.15 | – | 0.2904 ± 0.00239
x1 = 0.1994 | – | 0.3556 ± 0.00287
x1 = 0.2 | 0.3517 ± 0.00287 | –
x1 = 0.2493 | – | 0.4085 ± 0.00335
x1 = 0.2496 | 0.4039 ± 0.00335 | –
x1 = 0.2997 | – | 0.4503 ± 0.00359
x1 = 0.2999 | 0.4445 ± 0.00359 | –
x1 = 0.3504 | – | 0.4797 ± 0.00382
x1 = 0.3508 | 0.4745 ± 0.00382 | –
x1 = 0.3993 | – | 0.4997 ± 0.00406
x1 = 0.4004 | 0.4926 ± 0.00406 | –
x1 = 0.4503 | 0.5028 ± 0.00406 | –
x1 = 0.4504 | – | 0.5095 ± 0.00406
x1 = 0.4992 | – | 0.5099 ± 0.00406
x1 = 0.5003 | 0.5039 ± 0.00406 | –
x1 = 0.5501 | – | 0.5012 ± 0.00406
x1 = 0.5505 | 0.4958 ± 0.00406 | –
x1 = 0.6006 | 0.4793 ± 0.00382 | 0.4852 ± 0.00406
x1 = 0.6505 | 0.4572 ± 0.00382 | –
x1 = 0.6508 | – | 0.4587 ± 0.00382
x1 = 0.7002 | 0.4214 ± 0.00335 | –
x1 = 0.7003 | – | 0.4234 ± 0.00359
x1 = 0.7491 | – | 0.3804 ± 0.00311
x1 = 0.7494 | 0.3806 ± 0.00311 | –
x1 = 0.7997 | – | 0.3235 ± 0.00263
x1 = 0.8004 | 0.3283 ± 0.00263 | –
x1 = 0.8494 | – | 0.2584 ± 0.0022
x1 = 0.8509 | 0.2606 ± 0.0022 | –
x1 = 0.9006 | 0.1836 ± 0.0016 | –
x1 = 0.9008 | – | 0.1743 ± 0.00153
x1 = 0.9495 | 0.09928 ± 0.000956 | –
